Results taken from patent US6355655B1, “Heterocyclic sulphonamide derivatives” (Eli Lilly and Company, priority 1998, dated 2002).

Target: T1, human GluR4B receptor (Homo sapiens, UniProt P48058)
T1 construct: expressed in transfected cells
Assay: Potentiation of agonist-induced excitability of human GluR4B receptor expressed in HEK 293 cells
Format: cell-based
Source text: The ability of compounds of formula I to potentiate glutamate receptor-mediated response may be determined using fluorescent calcium indicator dyes (Molecular Probes, Eugene, Oreg., Fluo-3) and by measuring glutamate-evoked efflux of calcium into GluR4 transfected HEK293 cells, as described in more detail below.
In one test, 96 well plates containing confluent monolayers of HEK cells stably expressing human GluR4B (obtained as described in European Patent Application Publication Number EP-A1-583917) are prepared. The tissue culture medium in the wells is then discarded, and the wells are each washed once with 200 μl of buffer (glucose, 10 mM, sodium chloride, 138 mM, magnesium chloride, 1 mM, potassium chloride, 5 mM, calcium chloride, 5 mM, N-[2-hydroxyethyl]-piperazine-N-[2-ethanesulfonic acid], 10 mM, to pH 7.1 to 7.3). […]
Each test is then performed as follows. […] A second fluorescent reading is taken after 5 minutes incubation. 15 μl of 400 μM glutamate solution is then added to each well (final glutamate concentration 100 μM), and a third reading is taken. The activities of test compounds and cyclothiazide solutions are determined by subtracting the second from the third reading (fluorescence due to addition of glutamate in the presence or absence of test compound or cyclothiazide) and are expressed relative to enhance fluorescence produced by 100 μM cyclothiazide.

T1 sequence (P48058 21-902): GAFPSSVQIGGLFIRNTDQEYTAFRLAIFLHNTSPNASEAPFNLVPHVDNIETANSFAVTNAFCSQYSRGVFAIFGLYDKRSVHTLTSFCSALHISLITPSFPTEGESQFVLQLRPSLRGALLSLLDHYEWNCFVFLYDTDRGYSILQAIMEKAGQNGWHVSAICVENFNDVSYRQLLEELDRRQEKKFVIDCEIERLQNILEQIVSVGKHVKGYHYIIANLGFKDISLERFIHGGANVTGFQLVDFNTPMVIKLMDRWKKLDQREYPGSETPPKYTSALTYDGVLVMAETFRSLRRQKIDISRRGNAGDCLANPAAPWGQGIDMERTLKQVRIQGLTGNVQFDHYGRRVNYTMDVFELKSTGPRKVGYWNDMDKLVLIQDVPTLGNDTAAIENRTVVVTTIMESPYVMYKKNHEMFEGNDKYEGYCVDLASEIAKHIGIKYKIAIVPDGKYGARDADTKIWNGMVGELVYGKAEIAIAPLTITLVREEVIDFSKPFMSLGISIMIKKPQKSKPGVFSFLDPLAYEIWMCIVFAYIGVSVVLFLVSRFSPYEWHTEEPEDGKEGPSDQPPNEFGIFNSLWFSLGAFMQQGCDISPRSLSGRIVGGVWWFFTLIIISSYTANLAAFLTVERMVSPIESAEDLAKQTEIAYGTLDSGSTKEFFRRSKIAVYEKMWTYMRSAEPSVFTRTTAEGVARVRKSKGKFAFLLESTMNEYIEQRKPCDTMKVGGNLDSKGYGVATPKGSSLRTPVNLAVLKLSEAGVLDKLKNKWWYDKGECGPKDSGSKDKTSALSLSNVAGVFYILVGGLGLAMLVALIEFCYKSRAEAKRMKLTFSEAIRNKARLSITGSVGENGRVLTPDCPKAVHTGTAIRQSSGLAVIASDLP

## NS(=O)(=O)c1cc2c(cc1Cl)NC(C1CC3C=CC1C3)NS2(=O)=O (stereo not shown) [cyclothiazide]
  potentiation of agonist-induced excitability: potentiate agonist-induced excitability
